Data reported in patent US20250304594A1, “METHYL (R)-2-(FLUOROMETHYL)-5-OXO-4-PHENYL-4,5,6,7-TETRAHYDRO-1H-CYCLOPENTA[B]PYRIDINE-3-CARBOXYLATE AND METHYL (R)-2-(FLUOROMETHYL)-5-OXO-4-PHENYL-1,4,5,7-TETRAHYDROFURO[3,4-B]PYRIDINE-3-CARBOXYLATE AS Cav1,2 ACTIVATORS” (Novartis AG, priority 2020, published 2025).

Key:
[1] = Compound exposure in wild-type mice (brain and blood levels); type: in vivo, C57BL/6J male mice; conditions: Table 9, mice, i.p., one hour after administration; for Kp at 1 h: male, C57BL/6J, mouse, brain (cerebellum) / blood, ip, read-out: Brain:blood ratio
Procedure: (§1) Compound administration and brain tissue collection. Wild-type C57BL/6J male mice were obtained from Jackson laboratories (Bar Harbor, ME). The acute, single-dose effects of CaV1.2 activators of the present disclosure were evaluated in male eight-week old mice (n=6 mice per compound). Each compound was dissolved in 10% PEG300, 10% Solutol, 10% Cremophore EL, and 70% Phosphate Buffered Saline and administered intraperitoneal (i.p.) at a concentration of 1 mg/kg up to 30 mg/kg depending on the compound. Animals were euthanized one hour after compound administration via exsanguination under deep anesthesia. Blood was collected in EDTA tubes for downstream analysis of drug levels. Brains were rapidly removed from the skull, and the cerebral cortex and cerebellum were regionally dissected. Cerebellar samples were snap frozen in liquid nitrogen to assess compound exposure. Cortical samples for cFos assessment were placed in 500 μl of RNAlater solution (ThermoFisher) to preserve the integrity of RNA in the sample. Samples remained in RNAlater for at least 24 hours at 4° C. before moving to −80° C. for storage before processing.
Quantification of compound exposure. Cerebellar tissue samples were homogenized in 4 ml of 20% acetonitrile and 80% Phosphate buffered saline for every 1 g of tissue (5× dilution). Tissue was homogenized using either of the following three methods: hand held probe system, TissueLyser system with 5 mm steel bead at a frequency of 30 s^−1 for 4 min, or OMNI Bead Ruptor Elite homogenizer for 30 seconds to 1 minute depending on tissue type. Tissue samples were added to a 96-well plate (12.5 uL sample) and processed for quantification by mass spectrometry.

cFos mRNA = cFos mRNA induction in cortex of wild-type mice (PK-PD); type: in vivo, C57BL/6J male mice; conditions: one hour after administration
Procedure: Assessment of Compound Exposure—cFos Induction (PK-PD) Relationship in Wild-Type Mice
as §1
Quantification of cFos mRNA induction. Tissue homogenization was performed using TissueLyser system for 96 well plates (Qiagen). First, frozen cortical samples were thawed, removed from RNAlater, and placed into TissueLyser tubes along with Buffer RLT containing 0.5% Reagent DX and one 5 mm TissueLyser metal bead. The TissueLyser tubes were loaded into a TissueLyser II tissue homogenizer for 3 rounds of homogenization, with each round lasting 5 minutes at 30 Hz bead-beating frequency. Total RNA was purified from the homogenate using RNeasy 96 Plus kit (Qiagen), RNA concentration and A260/A280 ratio were quantified via the Nanodrop (ThermoFisher), and all samples were normalized to 100 ng/μL concentration. RNA was reverse transcribed into cDNA using the Superscript III First-strand synthesis SuperMix Kit (ThermoFisher). For each sample, 6 μL of RNA (600 ng total) was mixed with 1 μL of Oligo dT and 1 μl of annealing buffer and heated to 65° C. for 5 minutes. Next, 10 μL of 2× First-Strand Reaction Mix and 2 μl of the Enzyme mix were added to achieve a total reaction volume of 20 μL. The samples were heated to 50° C. for 50 minutes then 85° C. for 5 minutes to complete cDNA synthesis.
Quantitative PCR was performed on the cDNA samples using Quantitect Multiplex RT-PCR kit (Qiagen) in a 384-well assay format. Each PCR well contained 2 μl of cDNA (60 ng total), 10 μL of RT-PCR mastermix, 1 μL of cFos FAM Taqman probe (Mm00487425_m1 (FAM) #4351368), 1 μL of GAPDH VIC Taqman probe (Mm99999915-g1 (VIC) #4448486), 0.2 μl of Multiplex RT mix and 5.8 μl of RNase-free water. On the ViiA7 Real-Time PCR system (ThermoFisher), the samples were heated to 95° C. for 15 minutes then cycled between 94° C. for 45 seconds and 60° C. for 45 seconds for 45 cycles. cFos Ct values were exported, normalized to GAPDH Ct values, and converted to relative fold change in expression using the delta-delta Ct relative quantification method. cFos fold changes between compound treatments and vehicle were analyzed by one-way ANOVA, followed by Tukey's post-hoc comparisons.

| SMILES | Kp at 1 h [1] | %↑cFOS mRNA cortex (3 mg/kg ip) (cFos mRNA) [%] | Brain:blood ratio [1] | %↑cFOS mRNA cortex (10 mg/kg ip) (cFos mRNA) [%] |
| --- | --- | --- | --- | --- |
| COC(=O)C1=C(CF)NC2=C(C(=O)OC2)[C@H]1c1cccc(F)c1[C@@H](C)F (single isomer, unassigned) [Example 8] | 3.5 | 496 | – | – |
| COC(=O)C1=C(CF)NC2=C(C(=O)OC2)[C@H]1c1cccc(F)c1C(F)(F)F (single isomer, unassigned) [Example 17] | 2.1 | 201 | – | – |
| COC(=O)C1=C(CF)NC2=C(C(=O)OC2)[C@H]1c1cccc(F)c1[C@H](F)CF (single isomer, unassigned) [Example 6] | 1.5 | 199 | – | – |
| COC(=O)C1=C(CF)NC2=C(C(=O)OC2)[C@H]1c1cccc(F)c1CC(F)F (single isomer, unassigned) [Example 11] | 1.1 | 160 | – | – |
| COC(=O)C1=C(CF)NC2=C(C(=O)OC2)[C@H]1c1cc(F)cc(F)c1[C@H](C)F (single isomer, unassigned) [Example 5, methyl (R)-4-(3,5-difluoro-2-((R or S)-1-fluoroethyl)phenyl)-2-(fluoromethyl)-5-oxo-1,4,5,7-tetrahydrofuro[3,4-b]pyridine-3-carboxylate] | 3.3 | 400 | – | – |
| COC(=O)C1=C(CF)NC2=C(C(=O)OC2)[C@H]1c1cc(F)cc(F)c1C(F)(F)F (single isomer, unassigned) [Example 10] | 0.9 | 225 | – | – |
| COC(=O)C1=C(CF)NC2=C(C(=O)OC2)[C@H]1c1cc(F)cc(F)c1[C@H](F)CF (single isomer, unassigned) [Example 16, methyl (R)-4-(2-((R or S)-1,2-difluoroethyl)-3,5-difluorophenyl)-2-(fluoromethyl)-5-oxo-1,4,5,7-tetrahydrofuro[3,4-b]pyridine-3-carboxylate] | 3.2 | 234 | – | – |
| COC(=O)C1=C(CF)NC2=C(C(=O)OC2)[C@H]1c1cc(F)cc(F)c1[C@H]1CC1(F)F (single isomer, unassigned) [Example 4, Methyl (R)-4-(2-((R or S)-2,2-difluorocyclopropyl)-3,5-difluorophenyl)-2-(fluoromethyl)-5-oxo-1,4,5,7-tetrahydrofuro[3,4-b]pyridine-3-carboxylate] | – | 161 | 1.4 | – |
| COC(=O)C1=C(CF)NC2=C(C(=O)OC2)[C@H]1c1cc(F)ccc1C(F)(F)F (single isomer, unassigned) [Example 23] | 1.2 | 365 | – | – |
| COC(=O)C1=C(CF)NC2=C(C(=O)OC2)[C@H]1c1cc(F)cc(F)c1[C@H]1CC1(F)F (single isomer, unassigned) [Example 3, Methyl (R)-4-(2-((R or S)-2,2-difluorocyclopropyl)-3,5-difluorophenyl)-2-(fluoromethyl)-5-oxo-1,4,5,7-tetrahydrofuro[3,4-b]pyridine-3-carboxylate] | 2.8 | 204 | – | – |
| COC(=O)C1=C(CF)NC2=C(C(=O)OC2)[C@H]1c1cccc(F)c1C1CC1 (single isomer, unassigned) [Example 2] | 1.5 | 378 | – | – |
| COC(=O)C1=C(CF)NC2=C(C(=O)OC2)[C@H]1c1cccc(F)c1[C@H]1CC1(F)F (single isomer, unassigned) [Example 1, methyl (R)-4-(2-((R or S)-2,2-difluorocyclopropyl)-3-fluorophenyl)-2-(fluoromethyl)-5-oxo-1,4,5,7-tetrahydrofuro[3,4-b]pyridine-3-carboxylate] | 2.9 | 254 | – | – |
| COC(=O)C1=C(CF)NC2=C(C(=O)CC2)[C@H]1c1cccc(F)c1C1CC1 (single isomer, unassigned) [Example 28] | 1.1 | 293 | – | – |
| COC(=O)C1=C(CF)NC2=C(C(=O)OC2)[C@H]1c1cc(F)cc(F)c1C1CC1 (single isomer, unassigned) [Example 13] | 3.5 | 225 | – | 444 |
| COC(=O)C1=C(CF)NC2=C(C(=O)OC2)[C@H]1c1ccccc1OC(F)F (single isomer, unassigned) [Example 9] | 1.5 | 290 | – | 525 |
| COC(=O)C1=C(CF)NC2=C(C(=O)CC2)[C@H]1c1cccc(F)c1[C@@H](F)CF (single isomer, unassigned) [Example 7, methyl (R)-4-(2-((R or S)-1,2-difluoroethyl)-3-fluorophenyl)-2-(fluoromethyl)-5-oxo-4,5,6,7-tetrahydro-1H-cyclopenta[b]pyridine-3-carboxylate] | – | 262 | – | – |
| COC(=O)C1=C(CF)NC2=C(C(=O)OC2)[C@H]1c1cccc(F)c1C(F)F (single isomer, unassigned) [Example 15] | 1.7 | 176 | – | 294 |
| COC(=O)C1=C(CF)NC2=C(C(=O)OC2)[C@H]1c1cc(F)cc(F)c1C(F)F (single isomer, unassigned) [Example 18] | 1 | 173 | – | 280 |
